Test results published in patent US10179782B2, “Substituted sulfonamide compounds” (Genentech, Inc., priority 2016, dated 2019).

Target: T1, human TRPA1 (Homo sapiens, UniProt O75762)
T1 construct: expressed in transfected cells; host or cells: CHO cells
Assay: TRPA1 FLIPR Tetra calcium influx assay in CHO cells (block of cinnamaldehyde-induced calcium influx)
Type: cell-based
Conditions: Table 2; CHO cells expressing TRPA1; agonist cinnamaldehyde 75 uM; 20 min compound incubation; Hill coefficient fixed to 1.5; read-out: hTRPA1 CHO Ca2+ AUC EVO (IC50)
Experimental: IC50s (effective concentration) of compounds on the human and rat TRPA1 channels were determined using a FLIPR Tetra instrument. CHO cells expressing TRPA1 were plated into 384-well plates, incubated overnight at 37 C, and loaded with BD calcium indicator dye for 1 hr at 37° C. followed by 15 minutes at room temperature. The assay buffer was Hank's Balanced Salt Solution (HBSS) containing 20 mM HEPES (pH readjusted to 7.4) along with 0.02% BSA.
Following dye load and plate cool down, compounds were added to the cells using FLIPR Tetra. Plates were then incubated with compounds for 20 minutes at room temperature prior to adding agonist. Following this incubation, ˜EC80 concentration of cinnamaldehyde (75 uM for human TRPA1 and 45 uM for rat TRPA1) was added to active the channels and block of cinnamaldehyde induced calcium influx was measured.
IC50s were fit with a standard Hill function, keeping the Hill coefficient (n) fixed to 1.5. Fixing the Hill coefficient will generally reduce variability of the IC50 determination. The IC50s were individually examined to make sure the MIN and MAX points were set correctly prior to validation of the results.

T1 sequence (O75762 whole entry): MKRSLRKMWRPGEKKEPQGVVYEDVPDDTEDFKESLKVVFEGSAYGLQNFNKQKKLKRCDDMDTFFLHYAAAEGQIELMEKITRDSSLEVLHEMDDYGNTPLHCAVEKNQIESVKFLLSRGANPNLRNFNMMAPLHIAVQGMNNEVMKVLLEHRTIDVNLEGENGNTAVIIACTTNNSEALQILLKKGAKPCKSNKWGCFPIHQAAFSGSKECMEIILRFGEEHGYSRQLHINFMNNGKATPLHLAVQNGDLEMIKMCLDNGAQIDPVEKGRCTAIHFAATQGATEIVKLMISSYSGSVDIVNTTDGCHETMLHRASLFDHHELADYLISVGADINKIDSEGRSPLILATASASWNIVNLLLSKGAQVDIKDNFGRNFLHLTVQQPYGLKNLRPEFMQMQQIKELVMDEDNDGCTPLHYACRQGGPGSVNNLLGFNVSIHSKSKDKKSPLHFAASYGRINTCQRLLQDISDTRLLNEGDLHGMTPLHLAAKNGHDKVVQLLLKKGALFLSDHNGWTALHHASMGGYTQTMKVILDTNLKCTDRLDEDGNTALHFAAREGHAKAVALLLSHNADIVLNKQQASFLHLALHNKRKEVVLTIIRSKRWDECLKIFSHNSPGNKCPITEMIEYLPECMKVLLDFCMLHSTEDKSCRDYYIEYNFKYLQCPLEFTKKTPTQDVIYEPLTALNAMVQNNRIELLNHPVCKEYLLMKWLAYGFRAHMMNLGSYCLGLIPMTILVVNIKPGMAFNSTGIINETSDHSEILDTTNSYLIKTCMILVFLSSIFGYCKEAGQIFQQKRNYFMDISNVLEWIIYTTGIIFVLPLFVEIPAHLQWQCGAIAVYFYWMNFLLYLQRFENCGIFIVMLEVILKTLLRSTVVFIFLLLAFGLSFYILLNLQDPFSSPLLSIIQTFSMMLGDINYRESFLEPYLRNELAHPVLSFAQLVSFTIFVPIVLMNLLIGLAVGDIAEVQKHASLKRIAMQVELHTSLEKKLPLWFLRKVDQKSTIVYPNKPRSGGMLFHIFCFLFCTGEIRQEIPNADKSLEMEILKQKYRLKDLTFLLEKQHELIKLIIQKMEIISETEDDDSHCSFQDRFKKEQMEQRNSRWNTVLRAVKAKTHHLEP

Row | IC50 | Structure (SMILES)
1 | 2.12 nM | O=C(NCc1cc(-c2cnc(C(F)(F)F)nc2)ccc1F)[C@@H]1C[C@@H]2C[C@@H]2N1S(=O)(=O)c1ccc(F)cc1 [Example 16, (1S,3S,5S)-2-(4-fluorophenyl)sulfonyl-N-[[2-fluoro-5-[2-(trifluoromethyl)pyrimidin-5-yl]phenyl]methyl]-2-azabicyclo[3.1.0]hexane-3-carboxamide]
2 | 1.37 nM | C[C@H]1CC[C@@H](C(=O)NCc2cc(-c3cnc(C(F)(F)F)nc3)ncc2F)N1S(=O)(=O)c1ccc(F)cc1 [Example 17, (2S,5S)-1-(4-fluorophenyl)sulfonyl-N-[[5-fluoro-2-[2-(trifluoromethyl)pyrimidin-5-yl]-4-pyridyl]methyl]-5-methyl-pyrrolidine-2-carboxamide]
3 | 29.8 nM | O=C(NCc1cc(-c2cnc(C(F)(F)F)nc2)ncn1)[C@@H]1C[C@@H]2C[C@@H]2N1S(=O)(=O)c1ccc(F)cc1 [Example 18, (1S,3S,5S)-2-(4-fluorophenyl)sulfonyl-N-[[6-[2-(trifluoromethyl)pyrimidin-5-yl]pyrimidin-4-yl]methyl]-2-azabicyclo[3.1.0]hexane-3-carboxamide]
4 | 5.22 nM | C[C@H]1CC[C@@H](C(=O)NCc2cc(-c3cnc(C(F)(F)F)nc3)ncn2)N1S(=O)(=O)c1ccc(F)cc1 [Example 19, (2S,5S)-1-(4-fluorophenyl)sulfonyl-5-methyl-N-[[6-[2-(trifluoromethyl)pyrimidin-5-yl]pyrimidin-4-yl]methyl]pyrrolidine-2-carboxamide]
5 | 10.9 nM | CC[C@H]1CC[C@@H](C(=O)NCc2cc(-c3cnc(C(F)(F)F)nc3)ncn2)N1S(=O)(=O)c1ccc(F)cc1 [Example 20, (2S,5S)-5-ethyl-1-(4-fluorophenyl)sulfonyl-N-[[6-[2-(trifluoromethyl)pyrimidin-5-yl]pyrimidin-4-yl]methyl]pyrrolidine-2-carboxamide]
6 | 71.3 nM | O=C(NCc1cc(-c2cnc(C(F)(F)F)nc2)ncn1)[C@@H]1CC[C@H](C2CC2)N1S(=O)(=O)c1ccc(F)cc1 [Example 21, (2S,5R)-5-cyclopropyl-1-(4-fluorophenyl)sulfonyl-N-[[6-[2-(trifluoromethyl)pyrimidin-5-yl]pyrimidin-4-yl]methyl]pyrrolidine-2-carboxamide]
7 | 3610 nM | O=C(NCc1cc(-c2cnc(C(F)(F)F)nc2)ncn1)[C@H]1CC[C@@H](C(F)(F)F)N1S(=O)(=O)c1ccc(F)cc1 [Example 22, (2R,5S)-1-(4-fluorophenyl)sulfonyl-5-(trifluoromethyl)-N-[[6-[2-(trifluoromethyl)pyrimidin-5-yl]pyrimidin-4-yl]methyl]pyrrolidine-2-carboxamide]
8 | 85.6 nM | C[C@H]1[C@H](F)C[C@@H](C(=O)NCc2cc(-c3ccc(C(F)(F)F)nc3)ncn2)N1S(=O)(=O)c1ccc(F)cc1 [Example 23, (2S,4R,5S)-4-fluoro-1-(4-fluorophenyl)sulfonyl-5-methyl-N-[[6-[6-(trifluoromethyl)-3-pyridyl]pyrimidin-4-yl]methyl]pyrrolidine-2-carboxamide]
9 | 19.3 nM | C[C@H]1[C@H](F)C[C@@H](C(=O)NCc2cc(-c3cnc(C(F)(F)F)nc3)ncc2OC(F)F)N1S(=O)(=O)c1ccc(F)cc1 [Example 24, (2S,4R,5S)-N-((5-(difluoromethoxy)-2-(2-(trifluoromethyl)pyrimidin-5-yl)pyridin-4-yl)methyl)-4-fluoro-1-(4-fluorophenylsulfonyl)-5-methylpyrrolidine-2-carboxamide]
10 | 2400 nM | C[C@H]1[C@H](F)C[C@@H](C(=O)NCc2cc(N3CC(OC(F)(F)F)C3)ncn2)N1S(=O)(=O)c1ccc(F)cc1 [Example 25, (2S,4R,5S)-4-fluoro-1-(4-fluorophenylsulfonyl)-5-methyl-N-((6-(3-(trifluoromethoxy)azetidin-1-yl)pyrimidin-4-yl)methyl)pyrrolidine-2-carboxamide]
11 | 41.2 nM | C[C@H]1[C@H](F)C[C@@H](C(=O)NCc2cc(-c3ccc(C(F)(F)F)nc3)ncc2F)N1S(=O)(=O)c1ccc(F)cc1 [Example 26, (2S,4R,5S)-4-fluoro-N-((5-fluoro-6′-(trifluoromethyl)-2,3′-bipyridin-4-yl)methyl)-1-(4-fluorophenylsulfonyl)-5-methylpyrrolidine-2-carboxamide]
12 | 46.4 nM | C[C@H]1[C@H](F)C[C@@H](C(=O)NCc2cc(-c3cnc(C(F)(F)F)nc3)ncc2F)N1S(=O)(=O)c1ccccc1 [Example 27, (2S,4R,5S)-4-fluoro-N-((5-fluoro-2-(2-(trifluoromethyl)pyrimidin-5-yl)pyridin-4-yl)methyl)-5-methyl-1-(phenylsulfonyl)pyrrolidine-2-carboxamide]
13 | 6.96 nM | C[C@H]1[C@H](F)C[C@@H](C(=O)NCc2cc(-c3cnc(C(F)(F)F)nc3)ncc2F)N1S(=O)(=O)c1ccc(F)c(F)c1 [Example 28, (2S,4R,5S)-1-(3,4-difluorophenylsulfonyl)-4-fluoro-N-((5-fluoro-2-(2-(trifluoromethyl)pyrimidin-5-yl)pyridin-4-yl)methyl)-5-methylpyrrolidine-2-carboxamide]
14 | 113 nM | C[C@H]1[C@H](F)C[C@@H](C(=O)NCc2cc(-c3cnc(C(F)(F)F)nc3)ccn2)N1S(=O)(=O)c1ccc(F)cc1 [Example 29, (2S,4R,5S)-4-fluoro-1-(4-fluorophenylsulfonyl)-5-methyl-N-((4-(2-(trifluoromethyl)pyrimidin-5-yl)pyridin-2-yl)methyl)pyrrolidine-2-carboxamide]
15 | 8.65 nM | C[C@H]1[C@H](F)C[C@@H](C(=O)NCc2cc(-c3cnc(C(F)(F)F)nc3)c(F)cc2C#N)N1S(=O)(=O)c1ccc(F)cc1 [Example 30, (2S,4R,5S)-N-(2-cyano-4-fluoro-5-(2-(trifluoromethyl)pyrimidin-5-yl)benzyl)-4-fluoro-1-(4-fluorophenylsulfonyl)-5-methylpyrrolidine-2-carboxamide]
16 | 58.7 nM | C[C@H]1[C@H](F)C[C@@H](C(=O)NCc2cc(-c3ccc(C(F)(F)F)cn3)ccn2)N1S(=O)(=O)c1ccc(F)cc1 [Example 31, (2S,4R,5S)-4-fluoro-1-(4-fluorophenylsulfonyl)-5-methyl-N-((5-(trifluoromethyl)-2,4′-bipyridin-2′-yl)methyl)pyrrolidine-2-carboxamide]
17 | 10.4 nM | C[C@H]1[C@H](F)C[C@@H](C(=O)NCc2cc(-c3cnc(C(F)(F)F)nc3)c(Cl)cn2)N1S(=O)(=O)c1ccc(F)cc1 [Example 32, (2S,4R,5S)-N-((5-chloro-4-(2-(trifluoromethyl)pyrimidin-5-yl)pyridin-2-yl)methyl)-4-fluoro-1-(4-fluorophenylsulfonyl)-5-methylpyrrolidine-2-carboxamide]
18 | 3.58 nM | C[C@H]1[C@H](F)C[C@@H](C(=O)NCc2cc(-c3cnc(C(F)(F)F)nc3)ccc2C#N)N1S(=O)(=O)c1ccc(F)cc1 [Example 33, (2S,4R,5S)-N-([2-cyano-5-[2-(trifluoromethyl)pyrimidin-5-yl]phenyl]methyl)-4-fluoro-1-[(4-fluorobenzene)sulfonyl]-5-methylpyrrolidine-2-carboxamide]
19 | 38.8 nM | C[C@H]1[C@H](F)C[C@@H](C(=O)NCc2cc(-c3cnc(C(F)(F)F)nc3)c(F)cn2)N1S(=O)(=O)c1ccc(F)cc1 [Example 34, (2S,4R,5S)-4-fluoro-N-([5-fluoro-4-[2-(trifluoromethyl)pyrimidin-5-yl]pyridin-2-yl]methyl)-1-[(4-fluorobenzene)sulfonyl]-5-methylpyrrolidine-2-carboxamide]
20 | 53.1 nM | COc1cnc(CNC(=O)[C@@H]2C[C@@H](F)[C@H](C)N2S(=O)(=O)c2ccc(F)cc2)cc1-c1cnc(C(F)(F)F)nc1 [Example 35, (2S,4R,5S)-4-fluoro-1-[(4-fluorobenzene)sulfonyl]-N-([5-methoxy-4-[2-(trifluoromethyl)pyrimidin-5-yl]pyridin-2-yl]methyl)-5-methylpyrrolidine-2-carboxamide]
21 | 26 nM | C[C@H]1[C@H](F)C[C@@H](C(=O)NCc2cc(-c3ccc(C(F)(F)F)nc3)c(F)cn2)N1S(=O)(=O)c1ccc(F)cc1 [Example 36, (2S,4R,5S)-4-fluoro-N-([5-fluoro-4-[6-(trifluoromethyl)pyridin-3-yl]pyridin-2-yl]methyl)-1-[(4-fluorobenzene)sulfonyl]-5-methylpyrrolidine-2-carboxamide]
22 | 5.4 nM | C[C@H]1[C@H](F)C[C@@H](C(=O)NCc2cc(-c3cnc(C(F)(F)F)nc3)nc(C3CC3)n2)N1S(=O)(=O)c1ccc(F)cc1 [Example 37, (2S,4R,5S)-N-([2-cyclopropyl-6-[2-(trifluoromethyl)pyrimidin-5-yl]pyrimidin-4-yl]methyl)-4-fluoro-1-[(4-fluorobenzene)sulfonyl]-5-methylpyrrolidine-2-carboxamide]
23 | 69.4 nM | C[C@H]1[C@H](F)C[C@@H](C(=O)NCc2ccnc(-c3cnc(C(F)(F)F)nc3)c2)N1S(=O)(=O)c1ccc(F)cc1 [Example 38, (4R,5S)-4-fluoro-1-[(4-fluorobenzene)sulfonyl]-5-methyl-N-([2-[2-(trifluoromethyl)pyrimidin-5-yl]pyridin-4-yl]methyl)pyrrolidine-2-carboxamide]
24 | 630 nM | C[C@H]1[C@H](F)C[C@@H](C(=O)NCc2cc(-c3cnc(C(F)(F)F)nc3)ncc2F)N1S(=O)(=O)c1ccncc1 [Example 39, (2S,4R,5S)-4-fluoro-N-((5-fluoro-2-(2-(trifluoromethyl)pyrimidin-5-yl)pyridin-4-yl)methyl)-5-methyl-1-(pyridin-4-ylsulfonyl)pyrrolidine-2-carboxamide]
